Holding throughout (assay type): functional, cell-based
For test [1], the system named is SMMC-7721. Description: Cytotoxicity against human SMMC7721 cells after 48 hrs by MTS assay. To be noted: SMMC-7721, 48 h. (In general: Tetrazolium dyes change colour on reduction, which living cells bring about.)
In test [2] the test system is MCF7. The test is described as follows: Cytotoxicity against human MCF7 cells after 48 hrs by MTS assay. The settings on record: MCF7, 48 h.
In test [3] the test system is HL-60. The test is described as follows: Cytotoxicity against human HL60 cells after 48 hrs by MTS assay. The settings on record: HL-60, 48 h.
The subject of test [4] is SW480. Description: Cytotoxicity against human SW480 cells after 48 hrs by MTS assay. To be noted: SW480, 48 h.
Test [5] deals with A549. The test is described as follows: Cytotoxicity against human A549 cells after 48 hrs by MTS assay. The settings on record: A549, 48 h.

Bounds are passed on as bounds.

Turning to `C=C1[C@@H](O)[C@]23[C@H](O)[C@H]1C[C@H](OC(C)=O)[C@H]2[C@]12CCC[C@@](C)(COC(C)=O)[C@H]1[C@H](O)[C@]3(O)O[C@@H]2O` (relative stereo), the IC50 in test [1], in test [2], in test [3], in test [4] and in test [5] was greater than 10 µM throughout.
Consider `C=C1C(=O)[C@]23[C@H](O)[C@H]1CC[C@H]2[C@@]12CO[C@@]3(O)[C@@H](O)[C@@H]1[C@](C)(CO)CC[C@@H]2O`, for which the IC50 in test [1], in test [2], in test [3], in test [4] and in test [5] was greater than 10 µM in each case.
With `COC[C@H]1C(=O)[C@]23C[C@H]1CC[C@H]2[C@@]12CO[C@@]3(O)[C@@H](O)[C@@H]1[C@](C)(COC(C)=O)CC[C@@H]2O` (mixture of isomers), the IC50 (usually the concentration that inhibits the measured activity by half) in test [1] is 12.3 µM; in test [2], 16 µM; in test [3], 18 µM; in test [4], 9.68 µM; in test [5], 14.5 µM.
With `C=C1[C@@H]2C[C@H](O)[C@H]3[C@@]45CO[C@@](O)([C@@H](O)[C@@H]4C(C)(C)CC[C@@H]5OC(C)=O)[C@]3(C2)[C@@H]1O`, the IC50 in test [1], in test [2], in test [3], in test [4] and in test [5] was greater than 10 µM in each case.
Take `COC[C@@H]1C(=O)[C@]23[C@H](O)[C@H]1[C@@H](O)C[C@H]2[C@]12CCC[C@@](C)(CO)[C@H]1[C@H](O)[C@]3(O)OC2`: the IC50 in test [1], in test [2], in test [3], in test [4] and in test [5] was greater than 10 µM throughout.
With `COC[C@@H]1C(=O)[C@]23C[C@H]1CC[C@H]2[C@@]12CO[C@@]3(O)[C@@H](O)[C@@H]1C(C)(C)CC[C@@H]2OC(C)=O` (single isomer, unassigned), the IC50 in test [1], in test [2], in test [3], in test [4] and in test [5] was greater than 10 µM each time.
On to `CC(=O)O[C@H]1C(=O)[C@@]2(C)[C@H]([C@H](OC(=O)c3ccccc3)[C@]3(O)C[C@H](OC(=O)[C@H](O)[C@@H](NC(=O)c4ccccc4)c4ccccc4)C(C)=C1C3(C)C)[C@]1(OC(C)=O)CO[C@@H]1C[C@@H]2O` [PACLITAXEL], for which the IC50 in test [1], in test [2], in test [3], in test [4] and in test [5] was less than 0.008 µM in each case.
With `COC[C@@H]1C(=O)[C@]23[C@H](O)[C@H]1CC[C@H]2[C@@]12CO[C@@]3(O)[C@@H](O)[C@@H]1[C@](C)(CO)CC[C@@H]2O` (relative stereo), the IC50 in test [1], in test [2], in test [3], in test [4] and in test [5] was greater than 10 µM in each case.
With `C=C1[C@H]2C[C@@]3([C@@H]1O)[C@@H](C[C@@H]2O)[C@]12CCC[C@@](C)(COC(C)=O)[C@H]1[C@H](O)[C@]3(O)OC2`, the IC50 in test [1], in test [2], in test [3], in test [4] and in test [5] was greater than 10 µM throughout.
For the molecule `C=C1[C@@H](O)[C@]23[C@H](O)[C@H]1C[C@H](OC(C)=O)[C@H]2[C@]12CCCC(C)(C)[C@H]1[C@H](O)[C@]3(O)O[C@@H]2OCC` (relative stereo), the half-maximal inhibitory concentration (IC50) in test [1], in test [2], in test [3], in test [4] and in test [5] was greater than 10 µM in each case.
On to `COC[C@H]1C(=O)[C@]23[C@H](O)[C@H]1CC[C@H]2[C@@]12CO[C@@]3(O)[C@@H](O)[C@@H]1[C@](C)(CO)CC[C@@H]2O` (relative stereo), for which the 50% inhibitory concentration (IC50) in test [1], in test [2], in test [3], in test [4] and in test [5] was greater than 10 µM throughout.
As for `C=C1[C@@H](O)[C@]23[C@H](O)[C@H]1C[C@H](OC(C)=O)[C@H]2[C@]12CCC[C@@](C)(COC(C)=O)[C@H]1[C@H](OC(C)=O)[C@]3(O)O[C@@H]2O` (relative stereo), the IC50 was found to be 2.69 µM in test [1]; 3.86 µM in test [2]; 5.53 µM in test [3]; 3.17 µM in test [4]; 6.23 µM in test [5].
Consider `C=C1C(=O)[C@]23[C@H](O)[C@H]1CC[C@H]2[C@@]12CO[C@@]3(O)[C@@H](O)[C@@H]1[C@](C)(COC(C)=O)CC[C@@H]2O`, for which the IC50 in test [1], in test [2], in test [3], in test [4] and in test [5] was greater than 10 µM throughout.
With `C=C1C(=O)[C@]23[C@H](O)[C@H]1CC[C@H]2[C@]12CC[C@@H](OC(C)=O)[C@@](C)(CO)[C@H]1[C@H](O)[C@]3(O)OC2`, the IC50 in test [1], in test [2], in test [3], in test [4] and in test [5] was greater than 10 µM throughout.
As to `COC[C@H]1C(=O)[C@]23C[C@@H]1CC[C@H]2[C@@]12CO[C@]3(O)[C@@H](O)[C@@H]1C(C)(C)CC[C@@H]2O`, the IC50 in test [1] came to 14.6 µM; in test [2], 13.8 µM; in test [3], 17.2 µM; in test [4], 7.83 µM; in test [5] it was 14.3 µM.
The matching figures for `COC[C@H]1C(=O)[C@]23C[C@H]1CC[C@H]2[C@@]12CO[C@@]3(O)[C@@H](O)[C@@H]1C(C)(C)CC[C@@H]2OC(C)=O` (relative stereo): 3.99 µM, 3.2 µM, 3.77 µM, 1.23 µM and 6.8 µM.
The like results for `C=C1C(=O)[C@]23C[C@H]1C[C@H](O)[C@H]2[C@@]12CO[C@@]3(O)C[C@@H]1C(C)(C)CC[C@@H]2O` [RABDOCOETSIN C] were, in that order, 9.04 µM, 5.29 µM, 4.24 µM, 1.8 µM and 9.62 µM.
The matching figures for `C=C1C(=O)[C@]23C[C@H]1CC[C@H]2[C@@]12CO[C@@]3(O)[C@@H](O)[C@@H]1[C@](C)(COC(C)=O)CC[C@@H]2OC(C)=O`: 2.03 µM, 2.96 µM, 2.43 µM, 1.01 µM and 3.61 µM.
Turning to `C=C1C(=O)[C@]23[C@H](O)[C@H]1CC[C@H]2[C@]12CC[C@@H](O)[C@@](C)(CO)[C@H]1[C@H](O)[C@]3(O)OC2`, the IC50 in test [1], in test [2], in test [3], in test [4] and in test [5] was greater than 10 µM each time.
As for `C=C1[C@@H](O)[C@]23[C@H](O)[C@H]1CC[C@H]2[C@@]12CO[C@@]3(O)[C@@H](O)[C@@H]1[C@](C)(COC(C)=O)CC[C@@H]2O`, the IC50 in test [1], in test [2], in test [3], in test [4] and in test [5] was greater than 10 µM throughout.
For `C=C1C(=O)[C@]23[C@H](O)[C@H]1[C@@H](O)C[C@H]2[C@]12CCC[C@@](C)(CO)[C@H]1[C@H](O)[C@]3(O)OC2`, the IC50 in test [1], in test [2], in test [3], in test [4] and in test [5] was greater than 10 µM in each case.
For the molecule `C=C1C(=O)[C@]23C[C@H]1CC[C@H]2[C@]12CC[C@@H](O)[C@@](C)(COC(C)=O)[C@H]1[C@H](O)[C@]3(O)OC2`, the IC50 was 14.2 µM in test [1]; 14.7 µM in test [2]; 12.5 µM in test [3]; 3.74 µM in test [4]; 16 µM in test [5].
Regarding `C=C1C(=O)[C@]23[C@H](O)[C@H]1CC[C@H]2[C@]12CC[C@@H](O)[C@@](C)(COC(C)=O)[C@H]1[C@H](O)[C@]3(O)OC2`, the 50% inhibitory concentration (IC50) in test [1], in test [2], in test [3], in test [4] and in test [5] was greater than 10 µM each time.
For `COC[C@H]1C(=O)[C@]23[C@H](O)[C@H]1[C@@H](O)C[C@H]2[C@]12CCC[C@@](C)(COC(C)=O)[C@H]1[C@H](O)[C@]3(O)OC2` (relative stereo), the IC50 in test [1], in test [2], in test [3], in test [4] and in test [5] was greater than 10 µM in each case.
As to `C=C1C(=O)[C@]23C[C@H]1C[C@@H](OC(C)=O)[C@H]2[C@@]12CO[C@@]3(O)[C@@H](O)[C@@H]1C(C)(C)CC[C@@H]2O`, the IC50 stood at 12.7 µM in test [1]; 14.1 µM in test [2]; 5.36 µM in test [3]; 2.34 µM in test [4]; 12.1 µM in test [5].
For `C=C1[C@@H](O)[C@]23[C@H](O)[C@H]1C[C@H](OC(C)=O)[C@H]2[C@]12CCCC(C)(C)[C@H]1[C@H](O)[C@]3(O)O[C@@H]2O` (relative stereo), the IC50 in test [1], in test [2], in test [3], in test [4] and in test [5] was greater than 10 µM in each case.

Source of the values: ChEMBL document CHEMBL4130605, “7α,20-Epoxy-ent-kaurane Diterpenoids from the Aerial Parts of Isodon pharicus” (J Nat Prod, 2018).
